# Experimental data published in patent US11192899B2 (MERCK PATENT GMBH, priority 2017, dated 2021).
# Like-named read-outs stand apart in the source and are kept apart here.
# Tests used:
# Assay type in all cases: cell-based
# human A2A receptor = target: T1, human A2A receptor (Homo sapiens, UniProt P29274); test: cAMP HTRF functional assay, recombinant HEK293 cells expressing human A2A receptor, agonist NECA
# T1 construct: expressed in transfected cells; host or cells: HEK293
# Description: (§1) The functional activities of human A2A, A2B, A1 and A3 receptors were determined by quantification of cAMP, being the second messenger for adenosine receptors.
# (§2) Obtained raw data were normalized against the inhibitor control and the neural control (DMSO) and the normalized data were fitted using GeneData software.
# human A1 receptor = target: T2, human A1 receptor (Homo sapiens, UniProt P30542); test: cAMP HTRF functional assay, recombinant CHO cells expressing human A1 receptor, forskolin and agonist CPA
# T2 construct: expressed in transfected cells; host or cells: CHO
# T2 sequence (P30542 1-326): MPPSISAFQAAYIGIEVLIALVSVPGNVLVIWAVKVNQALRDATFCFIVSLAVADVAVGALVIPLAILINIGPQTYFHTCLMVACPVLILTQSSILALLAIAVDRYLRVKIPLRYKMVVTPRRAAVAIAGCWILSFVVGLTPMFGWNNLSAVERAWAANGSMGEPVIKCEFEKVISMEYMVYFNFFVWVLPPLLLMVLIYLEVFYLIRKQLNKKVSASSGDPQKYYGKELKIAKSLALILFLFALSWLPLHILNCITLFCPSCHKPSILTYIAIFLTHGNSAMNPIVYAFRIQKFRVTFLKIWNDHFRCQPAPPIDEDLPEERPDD
# Description: as §1
# For human A1 and A3 receptors, recombinant CHO cells, expressing either A1 or A3-receptor, were used. As both receptors couple to Gi proteins, the assay protocol was adapted:
# Cells were seeded into 384-well plates, forskolin, test compounds and agonists (CPA for A1- and IB-MECA for A3-receptor) were added. After 30 min incubation, HTRF reagents (cAMP dynamic 2, Cis Bio) were added and the cellular cAMP levels were determined using the ENVISION (Perkin Elmer) plate reader.
# as §2
# A2B receptors = target: T3, A2B receptors (Homo sapiens, UniProt P29275); test: cAMP HTRF functional assay, recombinant HEK293 cells expressing human A2B receptor, agonist NECA; design: expressed in transfected cells; host or cells: HEK293
# T3 sequence (P29275 1-332): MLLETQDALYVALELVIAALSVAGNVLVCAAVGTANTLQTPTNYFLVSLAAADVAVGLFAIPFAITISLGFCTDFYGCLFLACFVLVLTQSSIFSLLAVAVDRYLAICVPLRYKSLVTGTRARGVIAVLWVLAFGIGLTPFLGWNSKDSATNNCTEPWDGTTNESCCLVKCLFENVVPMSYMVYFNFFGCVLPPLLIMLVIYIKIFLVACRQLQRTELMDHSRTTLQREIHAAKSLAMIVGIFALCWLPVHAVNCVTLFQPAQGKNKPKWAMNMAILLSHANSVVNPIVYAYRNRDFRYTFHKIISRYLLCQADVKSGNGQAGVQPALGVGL
# Description: as §1, §2
# T1 sequence (P29274 whole entry): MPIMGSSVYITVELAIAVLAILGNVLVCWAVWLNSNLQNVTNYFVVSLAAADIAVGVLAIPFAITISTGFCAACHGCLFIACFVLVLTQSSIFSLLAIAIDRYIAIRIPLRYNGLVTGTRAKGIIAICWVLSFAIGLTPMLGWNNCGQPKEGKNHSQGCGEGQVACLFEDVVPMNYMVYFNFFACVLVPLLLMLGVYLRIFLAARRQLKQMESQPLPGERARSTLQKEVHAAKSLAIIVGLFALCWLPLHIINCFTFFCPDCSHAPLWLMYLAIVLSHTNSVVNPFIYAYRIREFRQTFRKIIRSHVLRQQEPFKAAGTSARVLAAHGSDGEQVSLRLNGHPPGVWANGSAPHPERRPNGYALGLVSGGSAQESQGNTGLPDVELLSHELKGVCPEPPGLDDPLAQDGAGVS
Compound,"IC50 (human A2A receptor; recombinant HEK293 cells, cAMP, agonist NECA) [nM]",IC50 (human A1 receptor) [nM],IC50 (human A2A receptor) [nM],IC50 (A2B receptors) [nM]
"4-Hydroxy-4-methyl-piperidine-1-carboxylic acid (5-methoxy-8-phenyl-pyrido[3,4-b]pyrazin-3-yl)-amide [compound 15]",< 100,,,
COc1ccc(C2CCOCC2)c2ncc(NC(=O)N3CC4(C3)CS(=O)(=O)C4)nc12 [compound 18],,> 1000,< 100,
COc1ccc(-c2cccc(F)c2)c2ncc(NC(=O)N3CCC(C)(O)CC3)nc12 [compound 62],,< 1000,< 100,> 1000
COc1ccc(C2CCOCC2)c2ncc(NC(=O)c3cnn(C)c3)nc12 [compound 68],,> 1000,< 10,> 1000
COc1ccc(C2CCOCC2)c2ncc(NC(=O)c3cnc(C)s3)nc12 [compound 78],,> 1000,< 10,< 1000
"C#CCC1(O)CCN(C(=O)Nc2cnc3c(C4CCOCC4)cnc(OC)c3n2)CC1 [compound 103, 4-Hydroxy-4-prop-2-ynyl-piperidine-1-carboxylic acid [5-methoxy-8-(tetrahydro-pyran-4-yl)-pyrido[3,4-b]pyrazin-3-yl]-amide]",,> 1000,< 10,> 1000
"COc1ncc(C2CCOCC2)c2ncc(NC(=O)N3CCC(C)(CO)CC3)nc12 [compound 104, 4-Hydroxymethyl-4-methyl-piperidine-1-carboxylic acid [5-methoxy-8-(tetrahydro-pyran-4-yl)-pyrido[3,4-b]pyrazin-3-yl]-amide]",,,< 10,
"CCCCc1ccc(OC)c2nc(NC(=O)N3CCC(C)(O)CC3)cnc12 [compound 108, N-(5-butyl-8-methoxyquinoxalin-2-yl)-4-hydroxy-4-methylpiperidine-1-carboxamide]",,> 1000,< 100,> 1000
"COc1ccc(C2=CCOCC2)c2ncc(NC(=O)N3CCC(C)(O)CC3)nc12 [compound 109, N-[5-(3,6-dihydro-2H-pyran-4-yl)-8-methoxyquinoxalin-2-yl]-4-hydroxy-4-methylpiperidine-1-carboxamide]",,< 1000,< 10,> 1000
"COc1ccc(-c2cccnc2)c2nc(NC(=O)N3CCC(C)(O)CC3)cnc12 [compound 112, 4-hydroxy-N-[5-methoxy-8-(pyridin-3-yl)quinoxalin-2-yl]-4-methylpiperidine-1-carboxamide]",,> 1000,< 100,
"COc1ccc(-c2cnn(Cc3ccccn3)c2)c2ncc(NC(=O)N3CCC(C)(O)CC3)nc12 [compound 114, 4-hydroxy-N-(8-methoxy-5-{1-[(pyridin-2-yl)methyl]-1H-pyrazol-4-yl}quinoxalin-2-yl)-4-methylpiperidine-1-carboxamide]",,< 1000,< 100,> 1000
"CNC(=O)c1cc(-c2ccc(OC)c3nc(NC(=O)N4CCC(C)(O)CC4)cnc23)ccn1 [compound 115, 4-{2-[(4-hydroxy-4-methylpiperidine-1-carbonyl)amino]-8-methoxyquinoxalin-5-yl}-N-methylpyridine-2-carboxamide]",,,< 100,
"COc1ccc(-c2cnn(C3CN(C(=O)OC(C)(C)C)C3)c2)c2ncc(NC(=O)N3CCC(C)(O)CC3)nc12 [compound 116, tert-butyl 3-(4-{2-[(4-hydroxy-4-methylpiperidine-1-carbonyl)amino]-8-methoxyquinoxalin-5-yl}-1H-pyrazol-1-yl)azetidine-1-carboxylate]",,< 1000,< 100,> 1000
"COCCOc1cccc(-c2ccc(OC)c3nc(NC(=O)N4CCC(C)(O)CC4)cnc23)c1 [compound 117, 4-hydroxy-N-{8-methoxy-5-[3-(2-methoxyethoxy)phenyl]quinoxalin-2-yl}-4-methylpiperidine-1-carboxamide]",,> 1000,< 100,> 1000
"COCCOCCn1cc(-c2ccc(OC)c3nc(NC(=O)N4CCC(C)(O)CC4)cnc23)cn1 [compound 119, 4-hydroxy-N-(8-methoxy-5-{1-[2-(2-methoxyethoxy)ethyl]-1H-pyrazol-4-yl}quinoxalin-2-yl)-4-methylpiperidine-1-carboxamide]",,> 1000,< 100,> 1000
"COc1ccc(-c2cccc(F)c2F)c2ncc(NC(=O)c3cnc(C)o3)nc12 [compound 125, N-[5-(2,3-difluorophenyl)-8-methoxyquinoxalin-2-yl]-2-methyl-1,3-oxazole-5-carboxamide]",,< 1000,< 100,
"COc1ccc(-c2ccccc2F)c2ncc(NC(=O)c3cnc(C)o3)nc12 [compound 129, N-[5-(2-fluorophenyl)-8-methoxyquinoxalin-2-yl]-2-methyl-1,3-oxazole-5-carboxamide]",,,< 10,< 100
"COc1ccc(C2CCOCC2)c2ncc(NC(=O)c3cnc(C)o3)nc12 [compound 130, N-[8-methoxy-5-(oxan-4-yl)quinoxalin-2-yl]-2-methyl-1,3-oxazole-5-carboxamide]",,> 1000,< 10,< 100
"COc1ccc(C2=CCOCC2)c2ncc(NC(=O)c3cnc(C)o3)nc12 [compound 132, N-[5-(3,6-dihydro-2H-pyran-4-yl)-8-methoxyquinoxalin-2-yl]-2-methyl-1,3-oxazole-5-carboxamide]",,< 1000,< 10,< 100
"COc1ccc(C2=CCOCC2)c2ncc(NC(=O)c3cnn(C)c3)nc12 [compound 135, N-[5-(3,6-dihydro-2H-pyran-4-yl)-8-methoxyquinoxalin-2-yl]-1-methyl-1H-pyrazole-4-carboxamide]",,< 100,< 10,< 100
"COc1ccc(C2=CCOCC2)c2ncc(NC(=O)C3(N)CC3)nc12 [compound 137, 1-amino-N-[5-(3,6-dihydro-2H-pyran-4-yl)-8-methoxyquinoxalin-2-yl]cyclopropane-1-carboxamide]",,< 1000,< 10,> 1000
"COc1ccc(C2=CCOCC2)c2ncc(NC(=O)c3csc(N)n3)nc12 [compound 139, 2-amino-N-[5-(3,6-dihydro-2H-pyran-4-yl)-8-methoxyquinoxalin-2-yl]-1,3-thiazole-4-carboxamide]",,> 1000,< 100,> 1000
"COc1ccc(C2=CCOCC2)c2ncc(NC(=O)c3ncc(C4CCOC4)s3)nc12 (stereo not drawn) [compound 140, N-[5-(3,6-dihydro-2H-pyran-4-yl)-8-methoxyquinoxalin-2-yl]-5-(oxolan-3-yl)-1,3-thiazole-2-carboxamide]",,< 1000,< 10,< 100
"COc1ccc(C2=CCOCC2)c2ncc(NC(=O)c3coc(CN)c3)nc12 [compound 142, 5-(aminomethyl)-N-[5-(3,6-dihydro-2H-pyran-4-yl)-8-methoxyquinoxalin-2-yl]furan-3-carboxamide]",,> 1000,< 10,> 1000
"COc1ccc(C2=CCOCC2)c2ncc(NC(=O)C3(C(=O)N(C)C)CC3)nc12 [compound 144, N′1-[5-(3,6-dihydro-2H-pyran-4-yl)-8-methoxyquinoxalin-2-yl]-N1,N1-dimethylcyclopropane-1,1-dicarboxamide]",,> 1000,< 100,
"COc1ccc(C2=CCOCC2)c2ncc(NC(=O)C3(CN(C)C)CC3)nc12 [compound 145, N-[5-(3,6-dihydro-2H-pyran-4-yl)-8-methoxyquinoxalin-2-yl]-1-[(dimethylamino)methyl]cyclopropane-1-carboxamide]",,> 1000,< 100,
"COc1ccc(C2=CCOCC2)c2ncc(NC(=O)c3nnc(C)s3)nc12 [compound 146, N-[5-(3,6-dihydro-2H-pyran-4-yl)-8-methoxyquinoxalin-2-yl]-5-methyl-1,3,4-thiadiazole-2-carboxamide]",,> 1000,< 100,
"COc1ccc(-c2cnn(C(F)F)c2)c2ncc(NC(=O)N3CCC(C)(O)CC3)nc12 [compound 158, N-{5-[1-(difluoromethyl)-1H-pyrazol-4-yl]-8-methoxyquinoxalin-2-yl}-4-hydroxy-4-methylpiperidine-1-carboxamide]",,> 1000,< 100,
"COc1ccc(N2CCCOCC2)c2ncc(NC(=O)C3CC3)nc12 [compound 161, N-[8-methoxy-5-(1,4-oxazepan-4-yl)quinoxalin-2-yl]cyclopropanecarboxamide]",,> 1000,< 100,
